This is an account of results in ChEMBL document CHEMBL1141741, “Coluteol and Colutequinone B, More Antifungal Isoflavonoids from Colutea arborescens” (1998).

Where only a bound is given, the exact number is not on record here.

The subject of this assay is Saccharomyces cerevisiae. Put plainly: Antimicrobial activity against Saccharomyces cerevisiae. The assay is classed as functional.
Regarding `COC1=C(OC)C(=O)C([C@@H]2COc3cc(OC)ccc3C2)=CC1=O` [COLUTEQUINONE A], the minimum inhibitory concentration (MIC) is < 50 µg/mL.

Turning to `COC1=CC(=O)C([C@@H]2COc3cc(OC)ccc3C2)=C(OC)C1=O` [COLUTEQUINONE B], the minimal inhibitory concentration (MIC) is < 50 µg/mL.

With `COc1ccc2c(c1)OC[C@@H](c1cc(O)c(OC)c(O)c1OC)C2` [R-COLUTEOL], the MIC was < 100 µg/mL.

NYSTATIN: the minimal inhibitory concentration (MIC) is < 5 µg/mL.
